Format in all cases: cell-based
Data set [1] relates to liver organoid. Kind of data set: GSH and ROS distribution by monochlorobimane (mBCL) and dihydroethidium (DHE) assay in liver organoid. The following applies: liver organoid of the THE-F group, APAP 2 to 50 mM.
The test system of data set [2] is liver organoid. In words: Toxicity test of liver organoid under drug concentration gradient (syringe pump and mixing channel). To be noted: cultured 48 hours under gradient formed from 50 mM APAP medium and medium containing no APAP.
In data set [3] the test system is CYP7A1. In words: CYP7A1 gene expression in liver organoid cultured alone or co-cultured with intestine organoid, bile acid in culture medium. The following applies: compared with DMSO control. The method, then:
(§1) Co-culture of the induced liver organoid and the adult stem cell-derived intestine organoid was performed, and the interaction between the two organoids was analyzed.

In data set [4] the test system is albumin gene. In words: Albumin gene expression in liver organoid cultured alone or co-cultured with intestine organoid, bile acid in culture medium. To be noted: all conditions (liver organoid alone or co-cultured with intestine organoid); compared with DMSO control. The method, then:
as §1

Data on two compounds can be found in US11725173B2, “Highly efficient organoid culture device and system” (CELLARTGEN INC., priority 2018, dated 2023).

Consider `CC(=O)Nc1ccc(O)cc1` [APAP, acetaminophen], for which, in data set [1], the “intracellular toxicity and damage of the liver organoid” value is recorded as “increased with an increasing concentration”. In addition, in data set [1] (at higher concentrations), the “fluorescence of DHE (reactive oxygen species formation)” value was “higher” and the “fluorescence of mBCL (intracellular glutathione, GSH)” value was “lower”. Besides, the “cytotoxicity in the liver organoid” value in data set [2] was “increased as the drug concentration increased”.

Take `C[C@H](CCC(=O)O)[C@H]1CC[C@H]2[C@@H]3[C@H](O)C[C@@H]4C[C@H](O)CC[C@]4(C)[C@H]3CC[C@]12C` [CDCA, chenodeoxycholic acid]: the “expression level of CYP7A1” value in data set [3] (liver organoid co-cultured with intestine organoid) is “a decrease”; in data set [3] (liver organoid cultured alone), “no difference”. The albumin gene expression result in data set [4] is “no difference in all conditions”.
